From patent publication US9095616B2, “Caged platinum nanoclusters for anticancer chemotherapeutics” (priority 2013, dated 2015)

How the values were obtained:
MDA-MB-231 = experiment: MTT cytotoxicity; type: cell-based, human; conditions: MDA-MB-231, 3 d
Method: Cells of the MDA-MB-231 line (Bioresource Collection and Research Center, Taiwan) were cultured in RPMI 1640 medium supplemented with 10% fetal bovine serum under 5% CO2 atmosphere at 37° C. Twenty-four-well cell culture plates were inoculated with 1×10^5 cells/well and kept at 37° C. for 24 h. The culture medium was changed in the presence of various concentrations of different treatments ([…] alone, carboplatin, cisplatin, and CPN) in culture medium (three replicates). The tests were performed for 3 d without changing the medium. After the overlaying cell-culture medium was removed, the cells were incubated with 3-(4,5-dimethylthiazol-2-yl)-2,5-diphenyltetrazolium bromide (MTT, Sigma, Mo. USA) at 37° C. for 1 h. After treatment, the fomazan product from MTT was dissolved in DMSO and quantified using a conventional ELISA reader at 570 nm. For calibration, a blank test was performed in a 24-well plate under the same conditions.

[1] = system: subcutaneous breast cancer xenograft; experiment: Active caspase-3 immunohistochemistry of tumor tissue; type: in vivo, Balb/c nude mice
Method: The frozen sections of tumor tissue (4 μm thick) were warm up to room temperature washed 3 times with PBS (5 min/time), and fixed with freshly prepared 4% paraformaldehyde in PBS for 15 minutes. The fixed sections were immersed in a polyclonal rabbit anti-mouse active caspase-3 antibody (Abeam Inc., ab2302, 5 μg/mL in 10% BSA of PBS, 50 μL/sample) at 4° C. for overnight, followed by washing with PBS (three times, 15 min/time) and incubating with peroxidase-conjugated polyclonal goat anti-rabbit antibodies (Abeam Inc., ab6721-200, 1:500 (v/v) in PBS, 100 μL/sample) at room temperature for 2 hours. These slides were first stained with DAB, subsequently counterstained with hematoxylin, and mounted with glass coverslisps before monitoring by light microscopy.

[2] = Maximal tolerated dose (Table 1); type: in vivo; conditions: IV injection
Method: The therapeutic efficacy of CPN using subcutaneous breast cancer xenograft in mice was evaluated by intratumoral (IT) injection. The maximal tolerated dose (MTD) of various drugs, such as CPN and cisplatin, was described in Table 1. […] Thus, the programmed death pathway of CPN-treated cells might be similar to that of cisplatin-treated cells. We verified whether the CPN could be injected into blood vessels to exert tumor-inside activation for anticancer chemotherapeutics. Thus, the CPN was extra coated with a cleavable PEG layer to prevent protein adhesions after intravenous (i.v.) injection to form a double-caged PN (DCPN). […] To render the DCPN with a targeting function, an iRGD tumor-penetrating peptide was co-administered with the DCPN into subcutaneous xenograft nude mice of breast cancer by IV administration. The tumor size in each mouse was grown to about 150 mm^3 to facilitate DCPN delivery. Additionally, the DCPN and one of the control groups (G2NH2 coated with a PEG corona) were pre-attached with as NIR dye, cy5.5, for real-time tracking alter administration. […] Consecutive tissue sections front four groups, including the control, cisplatin, G2NH2, and DCPN groups were examined histologically by hematoxylin and eosin (H&E) staining at the end point, and the slides were evaluated by an independent pathologist (FIG. 16). […]

[3] = system: subcutaneous breast cancer xenograft; experiment: Tumor suppression after IT injection; type: in vivo, Balb/c nude mice; conditions: IT injection once a week for 3 weeks, vs PBS and G2NH2
Method: (§1) Seven-week-old female Balb/c nude mice (16-20 g) were kept on a 12-h light/12-h dark cycle at 24±2° C. and 50±10% relative humidity, with free access to water and food. They were subcutaneously injected with […] cells/mouse to establish a breast tumor model. Tumors were measured by a digital Vernier caliper across each tumor's longest (a) and shortest (b) diameter, and tumor volume (V) was calculated by the formula V=0.5a×b^2. When the tumor size reached approximately 60 mm^3 and 150 mm^3, CPN and DCPN were administered by IT and IV injection, respectively. The stud of comparative efficiency in tumor suppression was performed. The mice were treated with CPN via IT injections once a week for a total of 3 weeks. Similarity. DCPN was administered to mice via IV once a week for 4 weeks. The injection volume was 5 μL/g body weight and the tumor size was calculated every 2 to 3 days. After the mice were sacrificed, tumors and blood were collected and placed in EDTA glass tubes.

[4] = system: subcutaneous xenograft of breast cancer; experiment: Tumor suppression after IV injection with iRGD co-administration; type: in vivo, Balb/c nude mice; conditions: IV 16.6 μmol/kg at 7-day intervals, 4 weeks, iRGD co-administered, vs PBS and G2NH2
Method: as §1
The therapeutic efficacy of CPN using subcutaneous breast cancer xenograft in mice was evaluated by intratumoral (IT) injection. […] Consecutive tissue sections front four groups, including the control, cisplatin, G2NH2, and DCPN groups were examined histologically by hematoxylin and eosin (H&E) staining at the end point, and the slides were evaluated by an independent pathologist (FIG. 16). […]

[5] = system: subcutaneous breast cancer xenograft; experiment: TUNEL assay of tumor tissue; type: in vivo, Balb/c nude mice; conditions: after treatment for 48 hours
Source text: Terminal dexoxynucleotidyl […]-mediated dUTP nick end labeling (TUNEL) assay was used for in situ detection of apoptotic cell death. The frozen sections of tumor tissue (4 μm thick) were warmed up to room temperature. The slides were washed 3 times with PBS to remove OCT (one of tumor's embedded medium for frozen tissues). The labeling procedures followed the standard protocol of this kit. These slides were stained with 3,3'-diaminobenzidne (DAB, Thermo, S21024-2), then counterstained with hematoxylin and mounted onto glass coverslisps before monitoring by light microscopy.

MDA-MB-231 cell line = experiment: ROS assay using CM-H2DCFDA; type: cell-based, human; conditions: 3 h
Method: MDA-MB-231 cell line was cultured in RPMI 1640 medium (media were supplemented with 10% fetal bovine serum) under 5% CO2 atmosphere at 37° C. The cells were inoculated with 1×10^5 cells per well in a 6-well cell-culture plate and cultivated at 37° C. for 24 h. Then, the culture medium was changed with the presence of various treatments, including […] alone, the CPN, cisplatin, and 0.03% H2O2 in the culture medium. The tests were performed for 3 h without changing the medium. After removal of the supernatant of cell culture medium, the cells were isolated for ROS assay using CM-H2DCFDA from INVITROGENTM.

Compound | IC50 (MDA-MB-231) [µg/mL] | apoptosis by active caspase-3 immunostaining [1] | maximal tolerated dose (MTD) [2] [µmol/kg] | tumor suppression [3] | tumor growth / tumor volume [4] | TUNEL staining (broken DNA strands) [5] | ROS production (MDA-MB-231 cell line)
N.N.O=C([O-])C1(C(=O)[O-])CCC1.[Pt+2] [carboplatin] | 35 | – | – | – | – | – | –
N.N.[Cl][Pt][Cl] [cisplatin] | 7 | can indeed cause apoptosis | 16.6 | notably efficacious in tumor suppression | can indeed cause tumors to shrink | TUNEL-positive staining | no significant ROS increase or decrease
